The structures appear in SMILES notation. Bounds are passed on as bounds.

human recombinant H-PGDS, sequence (O60760 whole entry): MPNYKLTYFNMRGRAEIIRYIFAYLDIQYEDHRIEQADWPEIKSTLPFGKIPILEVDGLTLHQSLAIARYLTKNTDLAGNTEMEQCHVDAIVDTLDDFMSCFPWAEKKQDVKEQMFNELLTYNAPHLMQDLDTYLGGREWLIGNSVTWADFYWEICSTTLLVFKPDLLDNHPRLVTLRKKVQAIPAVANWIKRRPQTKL

In the test the target is human recombinant H-PGDS (Homo sapiens, UniProt O60760). Nature of the test: Fluorescence Intensity h-PGDS TBA Enzyme Assay. The format is biochemical. The conditions noted are these: 1:175,000 human recombinant H-PGDS, highest inhibitor concentration typically 1 μM. The method in brief:
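Readout is PGH2 depletion: after a 42 s reaction with 5.0 μM PGH2 and 2.5 mM glutathione (pH 8.0 Tris, 10 min inhibitor preincubation), Fe(II) converts leftover PGH2 to MDA, which forms a fluorescent TBA complex. IC50s come from 11-point, 3-fold duplicate curves, 4-parameter fit.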
On to `COc1cccc(-c2ccc(C(=O)NCCCN3CCCC3=O)cn2)c1` [Example 290, 6-(3-Methoxyphenyl)-N-[3-(2-oxopyrrolidin-1-yl)propyl]nicotinamide], for which the half-inhibitory concentration (IC50) is 627 nM. In the case of `COc1cccc(-c2ccc(C(=O)NCc3ccc(-n4cncn4)cc3)cn2)c1` [Example 291, 6-(3-Methoxyphenyl)-N-[4-(1H-1,2,4-triazol-1-yl)benzyl]nicotinamide], the IC50 was 203 nM.

For the compound `COc1cccc(-c2ccc(C(=O)NCc3cccc(S(C)(=O)=O)c3)cn2)c1` [Example 292, 6-(3-Methoxyphenyl)-N-[3-(methylsulfonyl)benzyl] nicotinamide], the IC50 amounted to 215 nM. As for `COc1cccc(-c2ccc(C(=O)NC3CCOC3=O)cn2)c1` (stereo not drawn) [Example 293, 6-(3-Methoxyphenyl)-N-(2-oxotetrahydrofuran-3-yl)nicotinamide], the IC50 came to 508 nM.

Regarding `CCOC(=O)CC(NC(=O)c1ccc(-c2cccc(OC)c2)nc1)c1ccc(OC)cc1` (stereo not drawn) [Example 294, Ethyl 3-(4-methoxyphenyl)-3-({[6-(3-methoxyphenyl)pryidin-3-yl]carbonyl}amino) propanoate], the IC50 turned out to be 191 nM.

Take `COc1cccc(-c2ccc(C(=O)NCCN3CCN(Cc4ccccc4)CC3)cn2)c1` [Example 295, N-[2-(4-Benzylpiperazin-1-yl)ethyl]-6-(3-methoxyphenyl)nicotinamide]: the IC50 is 377 nM. As for `COc1cccc(-c2ccc(C(=O)NC3CCN(Cc4ccc(Cl)c(Cl)c4)C3=O)cn2)c1` (stereo not drawn) [Example 296, N-[1-(3,4-Dichlorobenzyl)-2-oxopyrrolidin-3-yl]-6-(3-methoxyphenyl)nicotinamide], the IC50 was 209 nM. Take `COc1cccc(-c2ccc(C(=O)NC(C)C)cn2)c1` [Example 297, N-Isopropyl-6-(3-methoxyphenyl)nicotinamide]: the IC50 amounted to 351 nM. For the compound `COc1cccc(-c2ccc(C(=O)NCCN3CCOC3=O)cn2)c1` [Example 298, 6-(3-Methoxyphenyl)-N-[2-(2-oxo-1,3-oxazolidin-3-yl)ethyl]nicotinamide], the IC50 turned out to be 528 nM. With `COc1cccc(-c2ccc(C(=O)NC(C)c3ccncn3)cn2)c1` (stereo not drawn) [Example 299, 6-(3-Methoxyphenyl)-N-(1-pyrimidin-4-ylethyl)nicotinamide], the IC50 is 578 nM.

Take `COc1cccc(-c2ccc(C(=O)NCCN3CCCC3=O)cn2)c1` [Example 300, 6-(3-methoxyphenyl)-N-[2-(2-oxopyrrolidin-1-yl)ethyl]nicotinamide]: the half-maximal inhibitory concentration (IC50) was 762 nM.

On to `CCOC(=O)CCCNC(=O)c1ccc(-c2cccc(OC)c2)nc1` [Example 301, Ethyl 4-({[6-(3-methoxyphenyl)pyridin-3-yl]carbonyl}amino)butanoate], for which the IC50 is 49.9 nM. Then `COc1cccc(-c2ccc(C(=O)NCCc3cccs3)cn2)c1` [Example 302, 6-(3-Methoxyphenyl)-N-[2-(2-thienyl)ethyl]nicotinamide], with 177 nM. As for `COc1ccc(CNC(=O)c2ccc(-c3cccc(OC)c3)nc2)cc1` [Example 303, N-(4-Methoxybenzyl)-6-(3-methoxyphenyl)nicotinamide], the IC50 amounted to 331 nM. For `COc1cccc(-c2ccc(C(=O)NCCC3CCCCO3)cn2)c1` (stereo not drawn) [Example 304, 6-(3-Methoxyphenyl)-N-[2-(tetrahydro-2H-pyran-2-yl)ethyl]nicotinamide], the IC50 amounted to 177 nM.

Consider `COc1cccc(-c2ccc(C(=O)NC3CCOCC3)cn2)c1` [Example 305, 6-(3-Methoxyphenyl)-N-(tetrahydro-2H-pyran-4-yl)nicotinamide], for which the IC50 was 38.7 nM. As to `COC(=O)[C@H](Cc1ccc(Cl)cc1)NC(=O)c1ccc(-c2cccc(OC)c2)nc1` [Example 306, Methyl 4-chloro-N-{[6-(3-methoxyphenyl)pyridin-3-yl]carbonyl}phenylalaninate], the IC50 was 387 nM.

`COc1cccc(-c2ccc(C(=O)Nc3ccccc3)cn2)c1` [Example 308, 6-(3-Methoxyphenyl)-N-phenylnicotinamide]: the IC50 came out at 54 nM. As to `COC(=O)CNC(=O)[C@H](C)NC(=O)c1ccc(-c2cccc(OC)c2)nc1` [Example 309, Methyl N-{[6-(3-methoxyphenyl)pyridin-3-yl]carbonyl}-L-alanylglycinate], the IC50 came out at 557 nM. As to `Cc1cccc(-c2ccc(C(=O)NCc3ccccc3)cn2)c1` [Example 310, N-Benzyl-6-(3-methylphenyl)nicotinamide], the IC50 amounted to 19.4 nM.

In the case of `COc1cccc(-c2ccc(C(=O)NCc3cccc(F)c3)cn2)c1` [Example 311, N-(3-Fluorobenzyl)-6-(3-methoxyphenyl)nicotinamide], the IC50 is 368 nM.

As to `Cc1cccc(-c2ccc(C(=O)NCc3cc(F)cc4c3OCOC4)cn2)c1` [Example 312, N-[(6-Fluoro-4H-1,3-benzodioxin-8-yl)methyl]-6-(3-methylphenyl)nicotinamide], the IC50 was 19.9 nM. As to `COc1cccc(-c2ccc(C(=O)NCC3C(=O)Nc4ccccc43)cn2)c1` (stereo not drawn) [Example 313, 6-(3-Methoxyphenyl)-N-[(2-oxo-2,3-dihydro-1H-indol-3-yl)methyl]nicotinamide], the IC50 was determined as 7.62 nM. For `Cc1cccc(-c2ccc(C(=O)NCc3ccc(F)cc3)cn2)c1` [Example 314, N-(4-Fluorobenzyl)-6-(3-methylphenyl)nicotinamide], the IC50 was determined as 79.5 nM. As for `COc1ccc(C(CNC(=O)c2ccc(-c3cccc(C)c3)nc2)N2CCOCC2)cc1` (stereo not drawn) [Example 315, N-[2-(4-Methoxyphenyl)-2-morpholin-4-ylethyl]-6-(3-methylphenyl)nicotinamide], the IC50 was 72.5 nM. On to `COc1cccc(-c2ccc(C(=O)NCc3ccc(S(C)(=O)=O)cc3)cn2)c1` [Example 316, 6-(3-Methoxyphenyl)-N-[4-(methylsulfonyl)benzyl] nicotinamide], for which the IC50 came to 382 nM. Under `CNS(=O)(=O)c1ccc(CNC(=O)c2ccc(-c3cccc(OC)c3)nc2)cc1` [Example 317, 6-(3-Methoxyphenyl)-N-{4-[(methylamino)sulfonyl]benzyl}nicotinamide] stands 153 nM; under `Cc1cccc(-c2ccc(C(=O)NC(C)c3ccncn3)cn2)c1` (stereo not drawn) [Example 319, 6-(3-Methylphenyl)-N-(1-pyrimidin-4-ylethyl)nicotinamide], 140 nM. Take `Cc1cccc(-c2ccc(C(=O)NCCC3CCCCO3)cn2)c1` (stereo not drawn) [Example 320, 6-(3-Methylphenyl)-N-[2-(tetrahydro-2H-pyran-2-yl)ethyl]nicotinamide]: the IC50 is 17.4 nM.

Regarding `Cc1cccc(-c2ccc(C(=O)NCCc3cccs3)cn2)c1` [Example 321, 6-(3-Methylphenyl)-N-[2-(2-thienyl)ethyl]nicotinamide], the IC50 came to 84.5 nM.

For `CS(=O)(=O)Cc1noc(CNC(=O)c2ccc(-c3ccc(F)cc3)nc2)n1` [Example 322, 6-(4-Fluorophenyl)-N-({3-[(methylsulfonyl)methyl]-1,2,4-oxadiazol-5-yl}methyl)nicotinamide], the IC50 was at least 1000 nM.

For the compound `COC(=O)CC(NC(=O)c1ccc(-c2ccc(F)cc2)nc1)c1cccnc1` (stereo not drawn) [Example 323, Methyl 3-({[6-(4-fluorophenyl)pyridin-3-yl]carbonyl}amino)-3-pyridin-3-ylpropanoate], the IC50 is at least 1000 nM.

As for `O=C(NCCN1CCCCC1)c1ccc(-c2ccc(F)cc2)nc1` [Example 324, 6-(4-Fluorophenyl)-N-(2-piperidin-1-ylethyl)nicotinamide], the IC50 is at least 1000 nM.

(Values after US20110306597A1, “Nicotinamide Derivatives” (priority 2008, published 2011).)
